Data published in paper PMC11173485, “Connecting GSK-3β Inhibitory Activity with IKK-β or ROCK-1 Inhibition to Target Tau Aggregation and Neuroinflammation in Alzheimer’s Disease—Discovery, In Vitro and In Cellulo Activity of Thiazole-Based Inhibitors” (Molecules, 2024).
≈ marks a conversion by molar mass, not a printed value.

Tests used:
[1] = Metabolic stability in mouse liver microsomes; type: in vitro ADME; conditions: % compound remaining after 15 min with mouse liver microsomes, NADPH
Description: Metabolic stability was assessed using pooled microsomes from the liver of male mice (CD-1) from Sigma-Aldrich (St. Louis, MO, USA). Incubations were carried out in 96-well plates. Potassium phosphate buffer (100 mM, pH 7.4, + 2 mM MgCl2) containing murine liver microsomes (0.5 mg protein/mL) was pre-incubated with test compounds or positive control (1 µM, 0.2% DMSO) at 37 °C for 15 min (N = 2). Reactions were initiated by adding NADPH (1 mM). The reactions were also incubated without NADPH to exclude non-NADPH metabolism. The reactions were terminated after 15 min via the addition of an acetonitrile quenching solution containing an internal standard (labetalol, 0.5 mM). The plates were centrifuged at 4000 rpm for 30 min at 4 °C, and an aliquot of supernatant was diluted with water before analysis via UPLC-MS/MS. The UPLC-MS/MS system consisted of a Waters Acquity Premier (Waters Corporation, Milford, MA, USA) coupled with a Waters Xevo TQ-S Cronos mass spectrometer (electrospray ionization mode ESI). […] Chromatograms were recorded using a Waters eλ PDA detector. Spectra were analyzed in the 200–700 nm range with 1.2 nm resolution and a sampling rate of 20 points/s. […]

[2] = tested on: IL-6 level, LPS-treated BV-2 cells; experiment: IL-6 level in LPS-treated BV-2 cells (LANCE Ultra TR-FRET); type: cell-based, mouse; conditions: LPS 100 ng/mL, 18 h
From the text: (§1) Lipopolysaccharide (LPS) is a potent pro-inflammatory stimulus triggering the extensive production of inflammatory mediators, including cytokines and chemokines. Consequently, it finds widespread application in inducing in vitro and in vivo models of sepsis and inflammation, including neuroinflammation. In this study, we employed LPS in the BV-2 cell line and assessed the impact of the selected compounds on the levels of NO, IL-6, and TNF-α production (Figure 4B–D). […] Moreover, all compounds surpassed the reference compound in these assays.
(§2) The cells were pretreated with tested compounds for 1 h. After this time, lipopolysaccharide (100 ng/mL) was added and the resulting mixture was incubated for 18 h. Next, the culture supernatant was acquired to measure the levels of nitric oxide (NO), IL-6, and TNF-α, according to the following procedures.
IL-6 and TNF-α levels in the culture supernatants were measured using the LANCE Ultra TR-FRET Detection Kit (Perkin Elmer, Waltham, MA, USA), according to the manufacturer’s protocol. Each cytokine detection was performed separately in a 384-well plate, following the kit instructions. Samples were added at 15 μL/well to a 384-well plate and then premixed antibody solution was added at 5 μL/well. After 1 h of incubation of IL-6 and 3 h of incubation of TNF-α in the dark at 22 °C, the plates were read using an EnVision plate reader (Perkin Elmer) with the excitation wavelength at 320 nm, the donor emission were read at 615 nm, and the acceptor emission were read at 660 nm. The values of IL-6 and TNF-α levels were calculated as a percentage of control (maximal response of LPS).
(§3) Figure 4 (A) Results of the okadaic-acid-induced hyperphosphorylation assay. The HT-22 cells were pretreated for 3 h with okadaic acid (400 nM), and the tested compounds, at the increasing non-cytotoxic concentrations, were determined using a viability assay (or with the vehicle, 10 µM DMSO in the control sample). Cell viability was measured using the PrestoBlue^TM cell viability reagent. (B–D) Results of anti-inflammatory assays in LPS-treated (100 ng/mL) BV-2 cell line. The final compounds and references were tested at increasing non-cytotoxic concentrations and with DMSO as a control sample. NO release was measured using a fluorometric assay with 2,3-diaminonaphthalene (DAN). The IL-6 and TNF-α levels were measured using an LANCE Ultra TR-FRET Detection Kit (Perkin Elmer). Statistical analysis was performed using GraphPad Prism 9.0.0. All values are expressed as mean with SD. Differences among groups were evaluated using one-way ANOVA followed by post hoc analysis (Dunnett’s multiple comparison tests) and were considered statistically significant if p < 0.05 (* p < 0.05, ** p < 0.01, and **** p < 0.0001).

[3] = tested on: okadaic acid treated HT-22 cells; experiment: Okadaic-acid-induced tau hyperphosphorylation cell model, cell viability; type: cell-based, mouse; conditions: okadaic acid 400 nM; for cell viability after okadaic acid (in words): 3 h, viability after 24 h; for activity in okadaic-acid-induced hyperphosphorylation assay (in words): 10, 1, and 0.1 µM
Description: We evaluated the neuroprotective properties of the selected compounds in an okadaic-acid-induced tau hyperphosphorylation cell model. Okadaic acid, acting as a phosphatase inhibitor, induces hyperphosphorylation and accumulation of neurofilaments in the cells, thereby mirroring the hyperphosphorylated, tau-induced neurodegeneration observed in AD brain [55, 56]. […] Compounds 50 and 58 were not active.
HT-22 cells were seeded into 96-well plates at a density of 2 × 10^4 cells per well. Okadaic acid (Merck) was added at a concentration of 400 nM and incubated for 3 h. After this time, 10, 1, and 0.1 µM of tested compounds were added and incubated in the aseptic conditions (37 °C, 5% CO2). Cell viability was determined using Presto Blue assay after 24 h. All data were normalized to the percentage survival of vehicle control. Data are represented as mean SD versus vehicle control.
as §3

[4] = tested on: NO release, LPS-treated BV-2 cells; experiment: NO release in LPS-treated BV-2 cells (DAN fluorometric assay); type: cell-based, mouse; conditions: LPS 100 ng/mL, 18 h
From the text: as §1, §2
The NO level in the culture supernatants was measured using 2,3-diaminonaphthalene (DAN) reagent, according to the method of Nussler et al.. After 15 min of incubation at room temperature, the fluorescence intensity (EX 360; EM 440 nm) was measured using a microplate reader POLARstar Omega, (BMG Labtech). The values of nitric oxide were calculated as a percentage of control (maximal response of LPS).
as §3

[5] = Thermodynamic solubility assay in DPBS; type: physicochemical; conditions: for solubility at 24 h: Dulbecco's phosphate-buffered saline (DPBS), 20 °C, aqueous buffer, thermodynamic from solid, thermodynamic, 24 h shaking at room temperature, read-out: Solubility (µg/mL) ± SD
Description: To address potential challenges related to poorly soluble compounds, such as variable and limited intestinal absorption, we conducted thermodynamic solubility studies.
Quantitative HPLC analyses were performed similarly to the chemical stability studies. A standard solution of the tested compound was prepared in methanol at a concentration of 2 mg/mL. The standard solution was diluted with methanol to obtain five solutions with different concentrations ranging from 0.06 to 0.1 mg/mL or 0.035 to 0.05 mg/mL (for II), and they were quantified via HPLC. The calibration curve was plotted using AUC against the concentration (mg/mL). Next, 2 mg of the tested compound was dissolved in 1 mL of Dulbecco’s phosphate-buffered saline (DPBS), and the mixture was constantly agitated at 20 °C for 24 h in a thermoshaker. After that time, the mixture was filtered through a cellulose acetate syringe filter (pore size 0.22 μm) and the solution was analyzed via HPLC. The solubility of the tested compounds was calculated using the calibration curves (mg/mL).

[6] = Chemical stability assay in phosphate buffer pH 7.4; type: physicochemical; conditions: phosphate buffer pH 7.4, 37 °C, 120 min
Description: Before conducting the metabolic stability studies, we assessed the chemical stability of 62 and II in phosphate buffer at pH 7.4.
Quantitative HPLC analyses were acquired using Waters Alliance e2695 separations module (Waters, Milford, CT, USA), containing 2998 photodiode array (PDA), a detector (Waters, Milford, CT, USA), and a SpeedROD RP-18e 50–4.6 mm column (Merck, KGaA, Darmstadt, Germany). The temperature of the column was preserved at 30 °C. The experiment was conducted under the following conditions: a flow rate of 5 mL/min, eluent A (water/0.1% HCOOH), eluent B (MeCN/0.1% HCOOH), and a gradient starting from 0% of B to 100% of B for 3 min. Each sample was injected at a volume of 10 μL in triplicate, and the spectra were analyzed at the maximum wavelength. Potassium phosphate buffer (100 mM, pH 7.4, + 2 mM MgCl2) was incubated with the test compounds (1 µM, 0.2% DMSO) at 37 °C for 120 min (N = 2).

SMILES	MLM Stability (%) ± SD [1] [%]	IL-6 level (in words) ([2]; 10 µM)	cell viability after okadaic acid (in words) ([3]; 10 µM compound)	NO level (in words) ([4]; 1 µM)	NO level (in words) ([4]; 10 µM)	increase in solubility compared to reference compound II [5]	solubility at 24 h [5] [µg/mL]	chemical stability, % compound remaining relative to 0 min [6] [%]	activity in okadaic-acid-induced hyperphosphorylation assay (in words) [3]	IL-6 level (in words) ([2]; 1 µM)	cell viability after okadaic acid (in words) ([3]; 1 µM compound)
O=C1NC2(CCOC2)Nc2cc(-c3ccnc(NC(=O)C4CC4)c3)sc21 (stereo not drawn) [Compound 62, N-(4-(4′-Oxo-3′,4,4′,5-tetrahydro-1′H,2H-spiro[furan-3,2′-thieno [3,2-d]pyrimidin]-6′-yl)pyridin-2-yl)cyclopropanecarboxamide]	100 ± 1	significantly decreased	increased cell viability	reduced NO levels	significantly decreased	sixfold	31 ± 1 (≈ 83.7 µM)	100			
NC(=O)Nc1cc(-c2cccc(NC(=O)C3CC3)c2)sc1C(N)=O [Compound 58, 5-(3-(Cyclopropanecarboxamido)phenyl)-3-ureidothiophene-2-carboxamide]									not active		
NC(=O)Nc1cc(-c2ccnc(NC(=O)C3CCC3)c2)sc1C(N)=O [Compound 50, 5-(2-(Cyclobutanecarboxamido)pyridin-4-yl)-3-ureidothiophene-2-carboxamide]		significantly decreased		reduced NO levels	significantly decreased				not active		
NC(=O)Nc1cc(-c2ccnc(NC(=O)C3CC3)c2)sc1C(N)=O [Compound 49, 5-(2-(Cyclopropanecarboxamido)pyridin-4-yl)-3-ureidothiophene-2-carboxamide]		significantly decreased	increased cell viability		significantly decreased					reduced IL-6 levels	increased cell viability
COc1nc(-c2ccnc(NC(=O)C3CC3)c2)sc1C(N)=O [II, reference compound]	100 ± 0						5 ± 1 (≈ 15.7 µM)	100			
